Test results published in patent publication US10004732B2 (Novartis AG, priority 2014, dated 2018).
pIC50: −log10 of the molar value. Counter-ions that a name gives are not always drawn.

Legend:
PI 3-kinase beta [1] = molecular target: T1, PI 3-kinase beta (Homo sapiens, UniProt P42338); assay: Kinase Glo Luminescent Kinase Assay (Kglo), assay B; format: biochemical; conditions: read-out: Assay B PI3Kβ IC50
PI 3-kinase alpha [2] = molecular target: T2, PI 3-kinase alpha (Homo sapiens, UniProt P42336); assay: Cellular assay H1, p-Akt (S473) in Rat-1 cells, Surefire format; format: cell-based; conditions: non-asterisked data: version H1 (Surefire format), Rat-1 cells; read-out: Assay H PI3Kα IC50
Target sequence in this assay (P42336 whole entry): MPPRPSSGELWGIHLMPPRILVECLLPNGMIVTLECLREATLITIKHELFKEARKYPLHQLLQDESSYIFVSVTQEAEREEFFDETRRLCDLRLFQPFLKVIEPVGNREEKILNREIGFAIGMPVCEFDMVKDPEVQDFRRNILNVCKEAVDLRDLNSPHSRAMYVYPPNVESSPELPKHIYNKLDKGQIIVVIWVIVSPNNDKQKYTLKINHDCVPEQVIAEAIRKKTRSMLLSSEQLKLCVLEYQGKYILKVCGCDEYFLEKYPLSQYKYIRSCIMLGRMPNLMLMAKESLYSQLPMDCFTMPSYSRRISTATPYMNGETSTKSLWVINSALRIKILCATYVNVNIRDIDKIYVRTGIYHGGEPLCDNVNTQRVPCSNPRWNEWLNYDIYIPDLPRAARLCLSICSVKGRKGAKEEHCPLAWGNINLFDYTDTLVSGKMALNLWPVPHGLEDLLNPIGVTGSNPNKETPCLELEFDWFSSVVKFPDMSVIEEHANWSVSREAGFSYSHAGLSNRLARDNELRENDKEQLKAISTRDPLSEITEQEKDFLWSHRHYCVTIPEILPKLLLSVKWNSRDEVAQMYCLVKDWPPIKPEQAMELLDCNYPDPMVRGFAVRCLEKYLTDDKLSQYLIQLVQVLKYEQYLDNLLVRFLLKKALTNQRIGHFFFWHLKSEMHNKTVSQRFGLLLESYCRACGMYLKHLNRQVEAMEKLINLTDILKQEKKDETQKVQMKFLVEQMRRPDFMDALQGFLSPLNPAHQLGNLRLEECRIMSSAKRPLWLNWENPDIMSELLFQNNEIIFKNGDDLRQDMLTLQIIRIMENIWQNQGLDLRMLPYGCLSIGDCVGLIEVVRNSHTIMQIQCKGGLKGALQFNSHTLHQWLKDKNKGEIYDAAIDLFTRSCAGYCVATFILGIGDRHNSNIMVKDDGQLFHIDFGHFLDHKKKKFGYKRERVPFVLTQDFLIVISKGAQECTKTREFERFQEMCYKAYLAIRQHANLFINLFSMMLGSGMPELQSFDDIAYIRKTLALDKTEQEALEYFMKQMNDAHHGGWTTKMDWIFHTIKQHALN
Target sequence in this assay (Q63787 whole entry partner): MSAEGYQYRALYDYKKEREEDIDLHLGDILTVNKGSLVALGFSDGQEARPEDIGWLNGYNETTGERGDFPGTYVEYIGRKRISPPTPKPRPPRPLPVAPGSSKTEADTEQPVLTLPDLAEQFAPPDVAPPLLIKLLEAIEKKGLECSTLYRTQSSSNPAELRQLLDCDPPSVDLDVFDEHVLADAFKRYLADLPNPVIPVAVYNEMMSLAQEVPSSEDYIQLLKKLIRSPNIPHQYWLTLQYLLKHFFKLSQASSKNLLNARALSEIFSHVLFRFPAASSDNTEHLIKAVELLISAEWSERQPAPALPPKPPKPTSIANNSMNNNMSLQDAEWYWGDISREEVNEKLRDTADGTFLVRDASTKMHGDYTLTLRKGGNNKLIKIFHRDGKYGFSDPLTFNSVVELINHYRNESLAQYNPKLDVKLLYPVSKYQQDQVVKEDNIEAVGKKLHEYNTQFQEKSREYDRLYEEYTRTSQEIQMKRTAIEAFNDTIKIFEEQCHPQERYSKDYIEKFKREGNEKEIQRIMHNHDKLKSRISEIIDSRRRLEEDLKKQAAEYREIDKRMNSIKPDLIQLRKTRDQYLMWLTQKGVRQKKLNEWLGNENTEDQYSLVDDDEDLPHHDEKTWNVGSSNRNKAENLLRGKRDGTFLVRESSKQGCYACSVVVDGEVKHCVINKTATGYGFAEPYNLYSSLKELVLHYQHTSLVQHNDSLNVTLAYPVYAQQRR
Source text: Cellular Assays for PI 3-Kinase Alpha (H1), Beta (I1) and Delta (J1): Surefire Format
AlphaScreen (Amplified Luminescent Proximity Homogeneous Assay, ALPHA, Perkin Elmer) is a non-radioactive bead-based proximity assay technology to study biomolecular interactions in a homogenous microtiter plate format. The brand name SureFire denotes AlphaScreen assays that are adapted to quantify the phosphorylation of endogenous cellular proteins in cell lysates, by using matched antibody pairs, which consist of an anti-phospho-kinase and an anti-kinase antibody. The assay allows characterization of kinase signaling in cells as well as measurement of kinase inhibitor effects.
Using Rat-1 cells stably expressing myr-HA-tagged versions of the human PI3Kdelta, PI3Kalpha, or PI3Kbeta p110 catalytic subunit isoforms, the assay was developed as a two-plate protocol in a 384-well format.
For compound testing, the cells were seeded at a density of 4000 (Rat-1_PI3Kdelta), 7500 (Rat-1_PI3Kalpha), or 6200 (Rat-1_PI3Kbeta) cells in 20 μl complete growth medium into cell culture treated 384-well plates and were grown at 37° C./5% CO2/90% humidity for 24 h. Shortly before compound transfer, the complete medium was removed, 30 μl assay buffer (DMEM high glucose, 1×MEM NEAA, 10 mM HEPES, 2 mM L-glutamine, 0.1% (w/v) BSA) was added and 10 μl of the compound predilutions were transferred to the cells.

PI 3-kinase gamma [3] = molecular target: T3, PI 3-kinase gamma (Homo sapiens, UniProt P48736); assay: TR-FRET Adapta assay, assay E; format: biochemical; conditions: read-out: Assay E PI3Kγ IC50
T3 sequence (P48736 whole entry): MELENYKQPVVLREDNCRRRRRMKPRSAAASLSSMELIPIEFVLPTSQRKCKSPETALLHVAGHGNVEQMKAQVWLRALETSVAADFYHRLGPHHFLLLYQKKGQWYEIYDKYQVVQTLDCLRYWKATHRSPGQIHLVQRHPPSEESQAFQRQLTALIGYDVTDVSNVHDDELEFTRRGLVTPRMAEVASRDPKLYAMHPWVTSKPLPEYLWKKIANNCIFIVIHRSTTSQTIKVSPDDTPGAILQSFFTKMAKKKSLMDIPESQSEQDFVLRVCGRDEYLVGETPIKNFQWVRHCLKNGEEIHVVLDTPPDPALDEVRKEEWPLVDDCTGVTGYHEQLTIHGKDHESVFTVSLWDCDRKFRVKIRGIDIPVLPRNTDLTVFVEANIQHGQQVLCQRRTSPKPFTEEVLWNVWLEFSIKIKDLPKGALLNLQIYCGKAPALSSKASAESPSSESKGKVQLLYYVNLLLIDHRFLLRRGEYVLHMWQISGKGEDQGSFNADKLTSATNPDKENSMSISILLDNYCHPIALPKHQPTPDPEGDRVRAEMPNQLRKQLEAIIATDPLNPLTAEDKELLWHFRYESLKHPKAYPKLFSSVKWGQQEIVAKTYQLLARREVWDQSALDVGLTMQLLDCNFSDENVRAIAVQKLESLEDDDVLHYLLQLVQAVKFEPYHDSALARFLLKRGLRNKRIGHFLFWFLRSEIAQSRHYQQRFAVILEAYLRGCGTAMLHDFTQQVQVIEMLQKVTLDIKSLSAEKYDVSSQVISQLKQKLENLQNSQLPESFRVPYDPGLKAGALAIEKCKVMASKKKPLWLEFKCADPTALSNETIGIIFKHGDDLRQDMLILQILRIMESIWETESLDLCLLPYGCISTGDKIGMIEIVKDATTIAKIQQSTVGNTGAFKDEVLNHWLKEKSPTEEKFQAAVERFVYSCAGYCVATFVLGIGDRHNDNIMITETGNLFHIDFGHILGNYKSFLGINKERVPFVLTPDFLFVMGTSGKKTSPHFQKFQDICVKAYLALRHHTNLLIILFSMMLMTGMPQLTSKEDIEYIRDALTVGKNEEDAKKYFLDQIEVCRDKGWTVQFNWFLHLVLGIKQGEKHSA

PI 3-kinase alpha [4] = molecular target: T2, PI 3-kinase alpha; assay: Kinase Glo Luminescent Kinase Assay (Kglo), assay A; format: biochemical; conditions: read-out: Assay A PI3Kα IC50
Target sequence in this assay (P42336 whole entry): as the sequence (P42336 whole entry) above

PI 3-kinase delta [5] = molecular target: T4, PI 3-kinase delta (Homo sapiens, UniProt O00329); assay: TR-FRET Adapta assay, assay F; conditions: read-out: Assay F PI3Kδ IC50
[6] = Microsomal clearance assay (M); conditions: intrinsic clearance in rat liver microsomes
Procedure: The experiments were performed in 96-well glass plates at 37° C. on an automated Tecan EVO platform. Test compounds at a concentration of 10 mM in pure DMSO were diluted 1:1000 in water to 10 μM. […] Reactions were initiated by the addition of 150 μL of a cofactor solution containing 2 mM NADPH.

PI 3-kinase gamma [7] = molecular target: T3, PI 3-kinase gamma; assay: Cellular U937 AKT assay K1 (MSD); format: cell-based; conditions: U937 cells, K1 format; read-out: Assay K1 PI3Kγ IC50
mTOR = mTOR (Homo sapiens, UniProt P42345); assay: Lanthascreen kinase binding assay, assay G; conditions: read-out: Assay G mTOR IC50
Procedure: Lanthascreen™ Kinase Binding Assay for mTOR (G)
Binding of an inhibitor to the kinase competes for binding with the tracer, resulting in a loss of FRET.
50 nL of compound dilutions were dispensed onto white 384-well small volume polystyrene plate.

PI 3-kinase delta [8] = molecular target: T4, PI 3-kinase delta; assay: Cellular assay J1, p-Akt (S473) in Rat-1 cells, Surefire format; format: cell-based; conditions: non-asterisked data: version J1 (Surefire format), Rat-1 cells; read-out: Assay J PI3Kδ IC50
Vps34 = Vps34 (Homo sapiens, UniProt Q8NEB9); assay: Kinase Glo Luminescent Kinase Assay (Kglo), assay C; format: biochemical; conditions: read-out: Assay C VPS34 IC50
Chain of Vps34 (Q8NEB9 whole entry, species assumed): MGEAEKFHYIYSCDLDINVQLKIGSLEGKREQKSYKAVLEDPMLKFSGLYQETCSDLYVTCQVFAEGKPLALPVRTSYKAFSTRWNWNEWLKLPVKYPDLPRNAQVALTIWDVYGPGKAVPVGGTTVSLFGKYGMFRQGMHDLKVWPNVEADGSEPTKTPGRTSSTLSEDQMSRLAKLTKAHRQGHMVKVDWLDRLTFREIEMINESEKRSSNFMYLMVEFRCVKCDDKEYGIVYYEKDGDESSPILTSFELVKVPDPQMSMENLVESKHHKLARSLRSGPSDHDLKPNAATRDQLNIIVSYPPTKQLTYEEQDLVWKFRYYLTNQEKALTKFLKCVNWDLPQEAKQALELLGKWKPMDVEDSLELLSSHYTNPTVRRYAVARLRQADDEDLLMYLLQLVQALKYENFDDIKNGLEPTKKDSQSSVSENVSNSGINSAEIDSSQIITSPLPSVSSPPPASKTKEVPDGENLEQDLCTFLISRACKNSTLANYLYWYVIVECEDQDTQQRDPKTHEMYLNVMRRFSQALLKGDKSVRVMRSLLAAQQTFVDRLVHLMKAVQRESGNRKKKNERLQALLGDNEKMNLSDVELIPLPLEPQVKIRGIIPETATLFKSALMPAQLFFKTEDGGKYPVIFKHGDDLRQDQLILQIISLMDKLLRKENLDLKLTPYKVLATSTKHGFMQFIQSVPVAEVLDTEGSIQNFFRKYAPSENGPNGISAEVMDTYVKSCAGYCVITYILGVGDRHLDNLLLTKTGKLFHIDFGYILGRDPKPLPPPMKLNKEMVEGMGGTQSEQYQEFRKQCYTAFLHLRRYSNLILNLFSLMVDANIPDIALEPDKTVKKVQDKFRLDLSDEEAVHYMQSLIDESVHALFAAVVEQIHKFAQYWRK
Procedure: Kinase Glo Luminescent Kinase Assay (Kglo) for Pb 3-Kinase Alpha (A), Pb 3-Kinase Beta (B), Vps34 (C), Pb 4-Kinase Beta (D)
The Kinase Glo Luminescent Kinase Assay (Promega, Madison/Wis., USA) is a homogeneous HTS method of measuring kinase activity by quantifying the amount of ATP remaining in solution following a kinase reaction.
L-α-phosphatidylinositol (PI), provided as 10 mg/ml solution in methanol, was transferred into a glass tube and dried under a nitrogen beam. It was then resuspended in 3% OctylGlucoside (1-0-n-octyl-beta-D-glucopyranoside) by vortexing and stored at 4° C. 5 μL of a mix of PI/OctylGlucoside with the PI 3-kinase alpha and PI 3-kinase beta subtypes, or Vps34 or PI 4-kinase beta were added. Kinase reactions were started by the addition of 5 μl of an ATP-mix containing in a final volume 10 μL 10 mM TRIS-HCl pH 7.5, 3 mM MgCl2, 50 mM NaCl, 0.05% CHAPS, 1 mM DTT and 1 μM ATP at room temperature.
All fits were performed with the program XLfit4 (ID Business Solutions, Guildford, UK).

PI 4-kinase beta = PI 4-kinase beta (Homo sapiens, UniProt Q9UBF8); assay: Kinase Glo Luminescent Kinase Assay (Kglo), assay D; format: biochemical; conditions: read-out: Assay D PI4Kβ IC50
Chain of PI 4-kinase beta (Q9UBF8 whole entry): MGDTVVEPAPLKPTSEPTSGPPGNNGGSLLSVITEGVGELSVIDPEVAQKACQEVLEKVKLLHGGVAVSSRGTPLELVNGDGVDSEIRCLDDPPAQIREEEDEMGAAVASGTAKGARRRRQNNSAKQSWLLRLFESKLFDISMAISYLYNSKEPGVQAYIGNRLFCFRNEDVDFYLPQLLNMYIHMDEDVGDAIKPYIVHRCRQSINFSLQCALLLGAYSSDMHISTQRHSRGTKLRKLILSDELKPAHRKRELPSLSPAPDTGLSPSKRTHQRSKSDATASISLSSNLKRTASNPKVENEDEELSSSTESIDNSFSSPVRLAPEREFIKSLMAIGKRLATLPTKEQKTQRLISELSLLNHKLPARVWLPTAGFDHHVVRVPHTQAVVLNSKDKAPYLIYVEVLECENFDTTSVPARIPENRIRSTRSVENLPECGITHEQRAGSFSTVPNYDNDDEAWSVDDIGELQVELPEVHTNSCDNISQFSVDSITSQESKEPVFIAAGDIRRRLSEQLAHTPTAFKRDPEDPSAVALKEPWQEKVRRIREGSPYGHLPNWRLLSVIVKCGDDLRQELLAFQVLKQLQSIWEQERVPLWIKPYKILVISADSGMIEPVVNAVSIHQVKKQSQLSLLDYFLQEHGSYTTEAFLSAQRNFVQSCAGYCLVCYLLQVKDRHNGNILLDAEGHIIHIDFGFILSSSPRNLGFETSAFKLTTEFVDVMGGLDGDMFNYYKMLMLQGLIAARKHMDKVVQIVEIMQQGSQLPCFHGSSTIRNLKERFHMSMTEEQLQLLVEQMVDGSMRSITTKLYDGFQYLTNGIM

PI 3-kinase beta [9] = molecular target: T1, PI 3-kinase beta; assay: Cellular assay I1, p-Akt (S473) in Rat-1 cells, Surefire format; format: cell-based; conditions: non-asterisked data: version I1 (Surefire format), Rat-1 cells; read-out: Assay I PI3Kβ IC50

Compound	pIC50 (PI 3-kinase beta [1])	pIC50 (PI 3-kinase alpha [2])	pIC50 (PI 3-kinase gamma [3])	pIC50 (PI 3-kinase alpha [4])	pIC50 (PI 3-kinase delta [5])	Assay M RLM CI(int) [6] [µL/min/mg]	pIC50 (PI 3-kinase gamma [7])	pIC50 (mTOR)	pIC50 (PI 3-kinase delta [8])	pIC50 (Vps34)	pIC50 (PI 4-kinase beta)	pIC50 (PI 3-kinase beta [9])
Cc1cc(-c2nc(-c3cc(S(=O)(=O)NCC4CCOC4)ccc3C)cnc2N)ccn1 (centres unmarked) [Example 129.18, 3-(5-amino-6-(2-methylpyridin-4-yl)pyrazin-2-yl)-4-methyl-N-((tetrahydrofuran-3-yl)methyl)benzenesulfonamide]	5.09	5.31	7.19	6.16	6.40	97	6.28	< 5.04	5.25	< 5.04	< 5.04	< 5.00
Cc1ccc(S(=O)(=O)NCC2COCCN2C)cc1-c1cnc(N)c(-c2cn(C)nc2C)n1 (centres unmarked) [Example 128.2, 3-(5-Amino-6-(1,3-dimethyl-1H-pyrazol-4-yl)pyrazin-2-yl)-4-methyl-N-((4-methylmorpholin-3-yl)methyl)benzenesulfonamide]		5.72	7.31	6.57	6.35	27	7.05		5.80	< 5.00	< 5.00	
Cc1ccc(S(=O)(=O)NCCC(C)(C)O)cc1-c1cnc(N)c(-c2cccnc2)n1 [Example 119.5]	< 5.04	5.31	7.09	6.12	6.26	118	6.24	< 5.04	5.31	< 5.04	5.10	5.78
Cc1ccc(S(=O)(=O)N[C@H]2CC[C@H](O)CC2)cc1-c1cnc(N)c(-c2ccnc(F)c2)n1 [Example 60, Trans-3-(5-Amino-6-(2-fluoropyridin-4-yl)pyrazin-2-yl)-N-(-4-hydroxycyclohexyl)-4-methylbenzenesulfonamide]	5.34	5.81	7.40	6.96	6.66	24	7.03	5.08	5.89	< 5.04	5.44	5.51
Cc1ccc(S(=O)(=O)NCCC(C)(C)O)cc1-c1cnc(N)c(-c2cnn(Cc3cccnc3)c2)n1 [Example 119.38]	5.46	5.18	7.92	7.05	7.52	167	7.47	5.34	5.99	< 5.04	5.20	5.66
Cc1ccc(S(=O)(=O)NCCC(O)C(F)(F)F)cc1-c1cnc(N)c(-c2cnn(C)c2)n1 (centres unmarked) [Example 51, 3-(5-Amino-6-(1-methyl-1H-pyrazol-4-yl)pyrazin-2-yl)-4-methyl-N-(4,4,4-trifluoro-3-hydroxybutyl)benzenesulfonamide]	5.38	5.21	7.38	6.43	6.31	55	7.17	< 5.04	5.40	5.15	< 5.04	5.18
Cc1cc(Cl)c(S(=O)(=O)NCC(C)(C)O)cc1-c1cnc(N)c(-n2cncn2)n1 [Example 124, 5-(5-Amino-6-(1H-1,2,4-triazol-1-yl)pyrazin-2-yl)-2-chloro-N-(2-hydroxy-2-methylpropyl)-4-methylbenzenesulfonamide]	7.00	6.60	7.66	7.40	6.80	79	7.42	6.15	6.54	< 5.00	6.38	6.09
Cc1ccc(S(=O)(=O)NCCC(C)(C)O)cc1-c1cnc(N)c(-c2cccnc2Cl)n1 [Example 119.6]	< 5.04	5.39	6.79	6.09	6.42		6.07	5.25	5.54	5.10	5.11	5.76

Next, values leading:

pIC50 (PI 3-kinase beta [1])	pIC50 (PI 3-kinase alpha [2])	pIC50 (PI 3-kinase gamma [3])	pIC50 (PI 3-kinase alpha [4])	pIC50 (PI 3-kinase delta [5])	Assay M RLM CI(int) [6] [µL/min/mg]	pIC50 (PI 3-kinase gamma [7])	pIC50 (mTOR)	pIC50 (PI 3-kinase delta [8])	pIC50 (Vps34)	pIC50 (PI 4-kinase beta)	pIC50 (PI 3-kinase beta [9])	Compound
5.13	6.31	7.36	7.05	6.89	81	5.44	5.43	6.06	< 5.04	5.13	5.75	COc1cc(-c2nc(-c3cc(S(=O)(=O)NCCC(C)(C)O)ccc3C)cnc2N)ccn1 [Example 119.3]
< 5.04	5.33	7.27	5.75	6.47		6.02	< 5.04	5.27	< 5.04	< 5.04	5.06	CCc1noc(-c2nc(-c3cc(S(=O)(=O)N4CCC(CO)CC4)ccc3C)cnc2N)n1 [Example 141, (1-((3-(5-Amino-6-(3-ethyl-1,2,4-oxadiazol-5-yl)pyrazin-2-yl)-4-methylphenyl)sulfonyl)piperidin-4-yl)methanol]
6.12	< 5.00	7.60	7.00	6.85	29	5.64		< 5.00	< 5.00	5.25	< 5.00	Cc1ccc(S(=O)(=O)NC[C@H]2CCCN2)cc1-c1cnc(N)c(-c2cn(C)nc2C)n1 [Example 106, (R)-3-(5-Amino-6-(1,3-dimethyl-1H-pyrazol-4-yl)pyrazin-2-yl)-4-methyl-N-(pyrrolidin-2-ylmethyl)benzenesulfonamide hydrochloride]
5.26	5.60	7.25	6.46	6.38	104	6.45	< 5.04	5.71	< 5.04	< 5.04	5.43	Cc1cc(-c2nc(-c3cc(S(=O)(=O)NCC4CCCO4)ccc3C)cnc2N)ccn1 (centres unmarked) [Example 129.17, 3-(5-amino-6-(2-methylpyridin-4-yl)pyrazin-2-yl)-4-methyl-N-((tetrahydrofuran-2-yl)methyl)benzenesulfonamide]
6.70	5.86	8.22	7.30	6.66	55	7.82		5.92	6.05	5.85	< 5.00	Cc1ncc(-c2nc(-c3cc(S(=O)(=O)NC4CC(O)C4)ccc3C)cnc2N)s1 (mixture of isomers) [Example 43, 3-(5-Amino-6-(2-methylthiazol-5-yl)pyrazin-2-yl)-N-(3-hydroxycyclobutyl)-4-methylbenzenesulfonamide]
5.81	6.07	7.17	6.72	6.35	192	6.99	5.10	5.98	< 5.00	5.31	5.77	Cc1ccc(S(=O)(=O)NCCC(F)(F)F)cc1-c1cnc(N)c(-n2cncn2)n1 [Example 127.31]
< 5.04	6.00	8.22	6.72	7.10	311	6.96	5.22	6.14	< 5.04	5.10	5.23	Cc1ccc(S(=O)(=O)NCCC(C)(C)O)cc1-c1cnc(N)c(-n2cnc(C(C)C)n2)n1 [Example 66, 3-(5-Amino-6-(3-isopropyl-1H-1,2,4-triazol-1-yl)pyrazin-2-yl)-N-(3-hydroxy-3-methylbutyl)-4-methylbenzenesulfonamide]
< 5.04	5.05	5.74	5.26	5.24	56	6.32	< 5.04	5.09	< 5.04	< 5.04	< 5.00	Cc1ccc(S(=O)(=O)NCCC(C)(C)O)cc1-c1cnc(N)c(-n2ccnc2)n1 [Example 61, 3-(5-Amino-6-(1H-imidazol-1-yl)pyrazin-2-yl)-N-(3-hydroxy-3-methylbutyl)-4-methylbenzenesulfonamide]
